# In patent US20250248979A1, “NOVEL GPX4 INHIBITORS AND USES THEREOF” (THE TRUSTEES OF COLUMBIA UNIVERSITY IN THE CITY OF NEW YORK, priority 2022, published 2025):
# System: HT-1080 cells
# Assay: Cellular dose response assay, HT-1080 with and without Fer-1
# Format: cell-based, human
# Details: compounds alone; Table 7; read-out: IC50 (uM) HT1080^a
# From the text: (§1) HT-1080 (human [Homo sapiens] […] fibrosarcoma), A-673 (human [Homo sapiens] […] Ewing's sarcoma), and SK-HEP-1 (human [Homo sapiens] […] hepatic adenocarcinoma), cells were obtained from ATCC. Huh7 (human [Homo sapiens] […] hepatocellular carcinoma), HLF (human [Homo sapiens] […] hepatocellular carcinoma), HepG2 (human [Homo sapiens] […] hepatocellular carcinoma), cells were obtained from the Cancer Cell Bank at Columbia University Irving Medical Center. HT-1080, A-673, Huh-7, and HLF cells were grown in Dulbecco's Modified Eagle Medium (DMEM) supplemented with 10% heat inactivated fetal bovine serum (HI-FBS), 1% non-essential amino acids, and 1% penicillin streptomycin. HepG2 and SK-HEP-1 cells were grown in Eagle's Minimum Essential Medium (EMEM) supplemented with 10% HI-FBS, and 1% penicillin-streptomycin. All cells were cultured at 37° C. and 5% CO2.
# (§2) HT-1080, HepG2, Huh7, HLF, and SK-HEP-1 cells were seeded into opaque white 384-well plates at 1500 cells per well then incubated at 37° C. with 5% CO2 overnight. The next day, compounds of interest were dissolved in DMSO and 12-point 2-fold dilution series were prepared with and without Fer-1. Cells were treated in triplicate (final DMSO concentration of 0.4% in all wells, including DMSO-only control wells) and incubated for a further 48 hours at 37° C. and 5% CO2. Cell viability was evaluated using CellTiter-Glo (Promega G7573) and luminescence was recorded on a Victor 5 plate reader. Data were analyzed in GraphPad Prism 9 and error bars represent standard deviation values for three technical replicates in a representative experiment.
row,Compound,IC50
1,O=C(CBr)OCCCNC(=O)c1cc2cc(Cl)ccc2[nH]1 [QW-305],1.9 µM
2,CC(C)(COC(=O)CCl)NC(=O)c1[nH]c2ccccc2c1Br [QW-348],8.5 µM
3,CC(C)(COC(=O)CCl)NC(=O)c1nn(-c2ccccc2)c2ccccc12 [QW-357],9.1 µM

# Second part, the molecule after the results:
row,IC50,Compound
1,3.1 µM,Cn1nc(C(=O)NC(C)(C)COC(=O)CCl)c2cc(Br)ccc21 [QW-356]
2,12.7 µM,Cn1nc(C(=O)NC(C)(C)COC(=O)CCl)c2cccc(OC(=O)CCl)c21 [QW-360]

# Same assay, conditions: with fer-1; Table 7; read-out: IC50 (uM) HT1080^b
row,Compound,IC50
1,O=C(CBr)OCCCNC(=O)c1cc2cc(Cl)ccc2[nH]1 [QW-305],5 µM
2,CC(C)(COC(=O)CCl)NC(=O)c1[nH]c2ccccc2c1Br [QW-348],26 µM
3,CC(C)(COC(=O)CCl)NC(=O)c1nn(-c2ccccc2)c2ccccc12 [QW-357],40.1 µM

# Results, then the molecule that gave them:
row,IC50,Compound
1,58.3 µM,Cn1nc(C(=O)NC(C)(C)COC(=O)CCl)c2cc(Br)ccc21 [QW-356]
2,46.7 µM,Cn1nc(C(=O)NC(C)(C)COC(=O)CCl)c2cccc(OC(=O)CCl)c21 [QW-360]

# System: HepG2 cells
# Assay: Cellular dose response assay, HepG2
# Format: cell-based, human
# Details: compounds alone; Table 7; read-out: IC50 (uM) HEPG2^a
# From the text: as §1, §2
row,Compound,IC50
1,O=C(CBr)OCCCNC(=O)c1cc2cc(Cl)ccc2[nH]1 [QW-305],1.9 µM
2,CC(C)(COC(=O)CCl)NC(=O)c1[nH]c2ccccc2c1Br [QW-348],7.5 µM
3,CC(C)(COC(=O)CCl)NC(=O)c1nn(-c2ccccc2)c2ccccc12 [QW-357],9.2 µM

# More lines, now with the values ahead:
row,IC50,Compound
1,6.7 µM,Cn1nc(C(=O)NC(C)(C)COC(=O)CCl)c2cc(Br)ccc21 [QW-356]
2,24.8 µM,Cn1nc(C(=O)NC(C)(C)COC(=O)CCl)c2cccc(OC(=O)CCl)c21 [QW-360]

# Same assay, conditions: with fer-1; Table 7; read-out: IC50 (uM) HEPG2^b
row,Compound,IC50
1,O=C(CBr)OCCCNC(=O)c1cc2cc(Cl)ccc2[nH]1 [QW-305],7.2 µM
2,CC(C)(COC(=O)CCl)NC(=O)c1[nH]c2ccccc2c1Br [QW-348],27.3 µM
3,CC(C)(COC(=O)CCl)NC(=O)c1nn(-c2ccccc2)c2ccccc12 [QW-357],55.7 µM

# More lines, now with the values ahead:
row,IC50,Compound
1,73.5 µM,Cn1nc(C(=O)NC(C)(C)COC(=O)CCl)c2cc(Br)ccc21 [QW-356]
2,40.3 µM,Cn1nc(C(=O)NC(C)(C)COC(=O)CCl)c2cccc(OC(=O)CCl)c21 [QW-360]

# System: Huh7 cells
# Assay: Cellular dose response assay, Huh7
# Format: cell-based, human
# Details: compounds alone; Table 7; read-out: IC50 (uM) Huh7^a
# From the text: as §1, §2
row,Compound,IC50
1,O=C(CBr)OCCCNC(=O)c1cc2cc(Cl)ccc2[nH]1 [QW-305],3.8 µM
2,CC(C)(COC(=O)CCl)NC(=O)c1[nH]c2ccccc2c1Br [QW-348],4.5 µM
3,CC(C)(COC(=O)CCl)NC(=O)c1nn(-c2ccccc2)c2ccccc12 [QW-357],3.5 µM

# Now from value to molecule:
row,IC50,Compound
1,2.5 µM,Cn1nc(C(=O)NC(C)(C)COC(=O)CCl)c2cc(Br)ccc21 [QW-356]
2,9.1 µM,Cn1nc(C(=O)NC(C)(C)COC(=O)CCl)c2cccc(OC(=O)CCl)c21 [QW-360]

# Same assay, conditions: with fer-1; Table 7; read-out: IC50 (uM) Huh7^b
row,Compound,IC50
1,O=C(CBr)OCCCNC(=O)c1cc2cc(Cl)ccc2[nH]1 [QW-305],26.1 µM
2,CC(C)(COC(=O)CCl)NC(=O)c1[nH]c2ccccc2c1Br [QW-348],32.4 µM
3,CC(C)(COC(=O)CCl)NC(=O)c1nn(-c2ccccc2)c2ccccc12 [QW-357],58.7 µM

# Second part, the molecule after the results:
row,IC50,Compound
1,112 µM,Cn1nc(C(=O)NC(C)(C)COC(=O)CCl)c2cc(Br)ccc21 [QW-356]
2,175 µM,Cn1nc(C(=O)NC(C)(C)COC(=O)CCl)c2cccc(OC(=O)CCl)c21 [QW-360]

# System: HLF cells
# Assay: Cellular dose response assay, HLF
# Format: cell-based, human
# Details: compounds alone; Table 7; read-out: IC50 (uM) HLF^a
# From the text: as §1, §2
row,Compound,IC50
1,O=C(CBr)OCCCNC(=O)c1cc2cc(Cl)ccc2[nH]1 [QW-305],0.7 µM
2,CC(C)(COC(=O)CCl)NC(=O)c1[nH]c2ccccc2c1Br [QW-348],4.1 µM
3,CC(C)(COC(=O)CCl)NC(=O)c1nn(-c2ccccc2)c2ccccc12 [QW-357],2.9 µM

# Further lines, results first:
row,IC50,Compound
1,1.1 µM,Cn1nc(C(=O)NC(C)(C)COC(=O)CCl)c2cc(Br)ccc21 [QW-356]
2,6.7 µM,Cn1nc(C(=O)NC(C)(C)COC(=O)CCl)c2cccc(OC(=O)CCl)c21 [QW-360]

# Same assay, conditions: with fer-1; Table 7; read-out: IC50 (uM) HLF^b
row,Compound,IC50
1,O=C(CBr)OCCCNC(=O)c1cc2cc(Cl)ccc2[nH]1 [QW-305],4.3 µM
2,CC(C)(COC(=O)CCl)NC(=O)c1[nH]c2ccccc2c1Br [QW-348],27.8 µM
3,CC(C)(COC(=O)CCl)NC(=O)c1nn(-c2ccccc2)c2ccccc12 [QW-357],36.4 µM

# The remaining lines, values ahead:
row,IC50,Compound
1,60.9 µM,Cn1nc(C(=O)NC(C)(C)COC(=O)CCl)c2cc(Br)ccc21 [QW-356]
2,27.1 µM,Cn1nc(C(=O)NC(C)(C)COC(=O)CCl)c2cccc(OC(=O)CCl)c21 [QW-360]

# System: SK-HEP-1 cells
# Assay: Cellular dose response assay, SK-HEP-1
# Format: cell-based, human
# Details: compounds alone; Table 7; read-out: IC50 (uM) SKHEP1^a
# From the text: as §1, §2
row,Compound,IC50
1,O=C(CBr)OCCCNC(=O)c1cc2cc(Cl)ccc2[nH]1 [QW-305],2.3 µM
2,CC(C)(COC(=O)CCl)NC(=O)c1[nH]c2ccccc2c1Br [QW-348],3.9 µM
3,CC(C)(COC(=O)CCl)NC(=O)c1nn(-c2ccccc2)c2ccccc12 [QW-357],3.8 µM

# Results, then the molecule that gave them:
row,IC50,Compound
1,0.8 µM,Cn1nc(C(=O)NC(C)(C)COC(=O)CCl)c2cc(Br)ccc21 [QW-356]
2,3.5 µM,Cn1nc(C(=O)NC(C)(C)COC(=O)CCl)c2cccc(OC(=O)CCl)c21 [QW-360]

# Same assay, conditions: with fer-1; Table 7; read-out: IC50 (uM) SKHEP1^b
row,Compound,IC50
1,O=C(CBr)OCCCNC(=O)c1cc2cc(Cl)ccc2[nH]1 [QW-305],10.9 µM
2,CC(C)(COC(=O)CCl)NC(=O)c1[nH]c2ccccc2c1Br [QW-348],32.7 µM
3,CC(C)(COC(=O)CCl)NC(=O)c1nn(-c2ccccc2)c2ccccc12 [QW-357],50 µM

# Results, then the molecule that gave them:
row,IC50,Compound
1,81 µM,Cn1nc(C(=O)NC(C)(C)COC(=O)CCl)c2cc(Br)ccc21 [QW-356]
2,44.4 µM,Cn1nc(C(=O)NC(C)(C)COC(=O)CCl)c2cccc(OC(=O)CCl)c21 [QW-360]

# Target: T1, GPX4 (Homo sapiens, UniProt P36969)
# T1 sequence (P36969 1-170 isoform P36969-2): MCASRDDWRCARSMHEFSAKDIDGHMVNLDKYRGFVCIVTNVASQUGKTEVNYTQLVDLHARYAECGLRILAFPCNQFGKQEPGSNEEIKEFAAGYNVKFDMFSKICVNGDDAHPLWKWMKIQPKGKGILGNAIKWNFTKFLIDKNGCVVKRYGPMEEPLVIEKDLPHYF
# Assay: GPX4 activity assay in cell lysates (NADPH-coupled)
# Format: biochemical
# Design: endogenous in cells; host or cells: A-673 cell lysate
# Details: not given
# How it was run: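 Native GPX4 in lysates of A-673 cells grown with 20 nM sodium selenite; lysate preincubated with compound 45 min at 37 °C in pH 8.0 buffer with 3 mM GSH, 0.5 mM NADPH and glutathione reductase. Reaction started with phosphatidylcholine hydroperoxide; NADPH consumption followed at 340 nm over 25 min; triplicates.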
row,Compound,"GPX4 inhibitory activity, result in words"
1,Cn1nc(C(=O)NC(C)(C)COC(=O)CCl)c2cc(Br)ccc21 [QW-356],significant improvement on GPX4 inhibition over QW-314 and RSL3

# Same assay, conditions: 200 μM
row,GPX4 inhibition,Compound
1,complete inhibition,Cn1nc(C(=O)NC(C)(C)COC(=O)CCl)c2cc(Br)ccc21 [QW-356]
2,complete inhibition,CC(C)(COC(=O)CCl)NC(=O)c1nn(-c2ccccc2)c2ccccc12 [QW-357]
3,complete inhibition,Cn1nc(C(=O)NC(C)(C)COC(=O)CCl)c2cccc(OC(=O)CCl)c21 [QW-360]

# Same assay, conditions: 200 μM; generation 1; mean ± s.d., n = 3
row,GPX4% inhibition at 200 (μM),Compound
1,88.6 ± 3.1%,O=C(CBr)OCCCNC(=O)c1cc2cc(Cl)ccc2[nH]1 [QW-305]
2,99.6 ± 3.2%,CC(C)(COC(=O)CCl)NC(=O)c1[nH]c2ccccc2c1Br [QW-348]

# Same assay, conditions: 200 μM; generation 2
row,GPX4% inhibition at 200 (μM),Compound
1,105.7 ± 2.5%,Cn1nc(C(=O)NC(C)(C)COC(=O)CCl)c2cc(Br)ccc21 [QW-356]
2,104.8 ± 1.9%,CC(C)(COC(=O)CCl)NC(=O)c1nn(-c2ccccc2)c2ccccc12 [QW-357]
3,101.9 ± 1.5%,Cn1nc(C(=O)NC(C)(C)COC(=O)CCl)c2cccc(OC(=O)CCl)c21 [QW-360]
